These are literature values, as cited in patent publication US8377476B2, “Butenafine hydrochloride-containing aqueous patch” (Teikoku Seiyaku Co., Ltd., priority 2008, dated 2013).

Where a name gives a salt, the structure may show the parent alone. Read-outs that look alike come from different tables or passages of the source.

Regarding `CN(Cc1ccc(C(C)(C)C)cc1)Cc1cccc2ccccc12` [butenafine hydrochloride], the Water-solubility entry is, setting by setting: (hydrochloride) “low water-solubility”; (listed as Butenafine hydrochloride) “extremely poor water-solubility”.
